Experimental data as given in ChEMBL document CHEMBL3352766, “Weakly anti-inflammatory limonoids from the seeds of Xylocarpus rumphii” (J Nat Prod, 2014).
Active and inactive are the calls of the source. No cut-off for these calls is given here.

Key:
[1] = system: J774.A1; experiment: Antiinflammatory activity in mouse J774.A1 cells assessed as inhibition of LPS-induced NO production treated 2 hrs before LPS challenge measured after 20 hrs; assay type: functional, cell-based
[2] = system: J774.A1; experiment: Antiinflammatory activity in mouse J774.A1 cells assessed as inhibition of LPS-induced NO production at 50 uM treated 2 hrs before LPS challenge measured after 20 hrs; assay type: functional, cell-based

SMILES | IC50 [1] | inhibition [2]
COc1ccc2c(c1)c(CC(=O)O)c(C)n2C(=O)c1ccc(Cl)cc1 [INDOMETHACIN] | 28.6 µM | –
CC[C@H](C)C(=O)O[C@H]1C(C)(C)[C@H](CC(=O)OC)[C@@]2(C)[C@H]3CC[C@]4(C)C(=CC(=O)O[C@H]4c4ccoc4)[C@]34O[C@@]2(O)[C@@]1(O)[C@H]4OC(=O)C(C)C | – | inactive
COC(=O)C[C@H]1C(C)(C)[C@H](OC(=O)C(C)C)[C@@H]2[C@@H](OC(=O)C(C)C)[C@@]34O[C@]2(O)[C@]1(C)[C@H]3CC[C@]1(C)[C@H]4CC(=O)O[C@H]1c1ccoc1 | – | inactive
CC[C@H](C)C(=O)O[C@H]1C(C)(C)[C@H](CC(=O)OC)[C@@]2(C)[C@H]3CC[C@]4(C)[C@@H](CC(=O)O[C@H]4c4ccoc4)[C@]34O[C@@]2(O)[C@@]1(O)[C@H]4OC(=O)[C@@H](C)CC | – | inactive
CC[C@H](C)C(=O)O[C@@H]1[C@H]2[C@@H](OC(=O)C(C)C)C(C)(C)[C@H](CC(=O)OC)[C@@]3(C)[C@H]4CC[C@]5(C)[C@@H](CC(=O)O[C@H]5c5ccoc5)[C@@]14O[C@@]23O | – | inactive
COC(=O)C[C@H]1[C@]2(C)C[C@@]34OC5(C)O[C@]6([C@@H]7[C@H](O)C(=O)O[C@@H](c8ccoc8)[C@]7(C)CC[C@]6(O5)[C@]13C)[C@H](OC(C)=O)[C@@]4(OC(C)=O)[C@H]2OC(C)=O | – | inactive
CC[C@H](C)C(=O)O[C@H]1C(C)(C)[C@H](CC(=O)OC)[C@@]2(C)[C@H]3CC[C@]4(C)C(=CC(=O)O[C@H]4c4ccoc4)[C@]34O[C@@]2(O)[C@@]1(O)[C@H]4OC(=O)[C@@H](C)CC | 31.3 µM | –
COC(=O)C[C@H]1C(C)(C)[C@H](OC(C)=O)[C@]2(O)[C@@H](OC(=O)C(C)C)[C@@]34O[C@]2(O)[C@]1(C)[C@H]3CC[C@]1(C)[C@H]4CC(=O)O[C@H]1c1ccoc1 | – | inactive
CC[C@H](C)C(=O)O[C@H]1[C@@]23O[C@]4(O)[C@@](C)([C@@H](CC(=O)OC)C(C)(C)[C@H](OC(=O)C(C)C)[C@]14O)[C@H]2CC[C@]1(C)[C@H]3CC(=O)O[C@H]1c1ccoc1 | 24.5 µM | –
